US8324390B2, “Tetrazole-substituted anthranilamides as pesticides” (Bayer CropScience AG, priority 2008, dated 2012)
Where two headings read alike, the source gives them in different places.

Legend:
[1] = test system: caterpillars of the armyworm (Spodoptera frugiperda); assay: Spodoptera frugiperda test (SPODFR spray treatment); assay type: in vivo; settings: Spodoptera frugiperda, foliar, read-out: effect in % (caterpillars killed)
Text: Solvent: 78.0 parts by weight of acetone

[2] = log P determination by HPLC (EEC Directive 79/831 Annex V.A8); assay type: physicochemical
Procedure: The measurements were carried out using an Agilent 1100 LC system with a 50*4.6 Zorbax Eclipse C18 1.8 μm column (oven temperature 55° C., flow rate 2.0 ml/min).
The following mobile phases were used:
Mobile phase A: acetonitrile+1000 μl of formic acid/l
Mobile phase B: Millipore water+900 μl of formic acid/l

[3] = test system: larvae of the mustard beetle (Phaedon cochleariae); assay: Phaedon test (PHAECO spray treatment); settings: for pest or weed control at 100 g/ha: Phaedon cochleariae, in Brassica rapa, foliar, read-out: effect in % (beetle larvae killed)
[4] = application rate 100 g/ha, maize leaf discs
[5] = reversed-phase HPLC, Zorbax Eclipse C18 column, determined by HPLC according to EEC Directive 79/831 Annex V.A8, read-out: log P

SMILES	pest or weed control at 100 g/ha ([1]; in Zea mays)	chromatographic logP ([2]; log P)	further results
Cc1cc(Cl)cc(C(=O)NC(C)(C)C)c1NC(=O)c1cc(Cn2nnnc2C(F)(F)C(F)(F)F)nn1-c1ccccc1Cl [Example 536]	–	–	pest or weed control at 100 g/ha [1, 4]: ≥ 80%; chromatographic logP [2, 5]: 4.41
CCNC(=O)c1cc(Cl)cc(Cl)c1NC(=O)c1cc(Cn2nnc(C(F)F)n2)nn1-c1ncccc1Cl [Example 285]	≥ 80%	2.7	–
Cc1cc(F)cc(C(=O)NC2CC2)c1NC(=O)c1cc(Cn2nnc(C(F)F)n2)nn1-c1ncccc1Cl [Example 294]	≥ 80%	2.41	–
Cc1cc(C#N)cc(C(=O)NC(C)CC(F)(F)F)c1NC(=O)c1cc(Cn2nnc(C(F)(F)F)n2)nn1-c1ncccc1Cl (stereo not drawn) [Example 75]	–	3.38	pest or weed control at 100 g/ha [3]: ≥ 80%
Cc1cc(Cl)cc(C(=O)NC(C)C)c1NC(=O)c1cc(Cn2nnc(C(F)(F)C(F)(F)F)n2)nn1-c1ncccc1Cl [drawing 595]	–	–	Kill in %/7 days ([3]; 0.8 g/ha): 100%
Cc1cc(C#N)cc(C(=O)NC(C)C#N)c1NC(=O)c1cc(Cn2nnc(C(F)(F)F)n2)nn1-c1ncccc1Cl (stereo not drawn) [Example 326]	≥ 80%	2.76	–
CNC(=O)c1cc(Cl)cc(C)c1NC(=O)c1cc(Cn2nnnc2-c2ccc(C(F)(F)F)cc2)nn1-c1ncccc1Cl [drawing 598]	–	–	Kill in %/7 days ([3]; 4 g/ha): 0%
CNC(=O)c1cc(Cl)cc(C)c1NC(=O)c1cc(Cn2nnnc2C(F)(F)F)nn1-c1ccccc1 [Example 502]	–	–	pest or weed control at 100 g/ha [1, 4]: ≥ 80%; chromatographic logP [2, 5]: 2.84
CCOC1CCC(NC(=O)c2cc(C#N)cc(C)c2NC(=O)c2cc(Cn3nnc(C(F)(F)F)n3)nn2-c2ncccc2Cl)CC1 (stereo not drawn) [Example 344]	–	–	pest or weed control at 100 g/ha [3]: ≥ 80%; chromatographic logP ([2]; reversed-phase HPLC, Zorbax Eclipse C18 column, by HPLC according to EEC Directive 79/831 Annex V.A8, read-out: log P): 3.6
Cc1cc(F)cc(C(=O)NC(C)C2CC2)c1NC(=O)c1cc(Cn2nnc(C(F)F)n2)nn1-c1ncccc1Cl (stereo not drawn) [Example 293]	≥ 80%	2.92	–
Cc1cc(C)c(NC(=O)c2cc(Cn3nnc(C(F)(F)F)n3)nn2-c2ncccc2Cl)c(C(=O)NCC2CC2)c1 [Example 83]	≥ 80%	3.35	–
Cc1cc(Cl)cc(C(=O)NC(C)C)c1NC(=O)c1cc(Cn2nnc(-c3ccc(Br)cc3)n2)nn1-c1ncccc1Cl	–	–	Kill in %/7 days ([3]; 0.8 g/ha): 0%
Cc1cc(I)cc(C(=O)NC(C)(C)C)c1NC(=O)c1cc(Cn2nnc(C(F)F)n2)nn1-c1ncccc1Cl [Example 307]	≥ 80%	3.5	–
CCNC(=O)c1cc(F)cc(C)c1NC(=O)c1cc(Cn2nnc(C(F)(F)F)n2)nn1-c1ncccc1Cl [Example 35]	≥ 80%	2.88	–
Cc1cc(I)cc(C(=O)NC2CCC2)c1NC(=O)c1cc(Cn2nnc(C(F)(F)F)n2)nn1-c1ncccc1Cl [Example 72]	–	3.85	pest or weed control at 100 g/ha [3]: ≥ 80%
Cc1cc(Br)cc(C(=O)NC(C)C)c1NC(=O)c1cc(Cn2nnc(C(F)F)n2)nn1-c1ncccc1Cl [Example 299]	≥ 80%	3.08	–
Cc1cc(Cl)cc(C(N)=O)c1NC(=O)c1cc(Cn2nnc(C(F)(F)F)n2)nn1-c1ncccc1Cl [Example 106]	≥ 80%	2.76	–
Cc1cc(I)cc(C(=O)NC2CC2)c1NC(=O)c1cc(Cn2nnc(C(F)F)n2)nn1-c1ncccc1Cl [Example 275]	≥ 80%	2.96	–
Cc1cc(C#N)cc(C(=O)NC(C)(C)C)c1NC(=O)c1cc(Cn2nnnc2C(F)(F)F)nn1-c1ccccc1Cl [Example 489]	–	–	pest or weed control at 100 g/ha [1, 4]: ≥ 80%; chromatographic logP [2, 5]: 3.52
CSC[C@H](C)NC(=O)c1cc(I)cc(C)c1NC(=O)c1cc(Cn2nnc(C(F)F)n2)nn1-c1ncccc1Cl [Example 278]	≥ 80%	3.41	–
Cc1cc(F)cc(C(=O)NC2CCC2)c1NC(=O)c1cc(Cn2nnc(C(F)(F)F)n2)nn1-c1ncccc1Cl [Example 51]	≥ 80%	3.23	–
Cc1cc(C#N)cc(C(=O)NCC2CCCCC2)c1NC(=O)c1cc(Cn2nnc(C(F)(F)F)n2)nn1-c1ncccc1Cl [Example 93]	–	3.96	pest or weed control at 100 g/ha [3]: ≥ 80%
Cc1cc(C#N)cc(C(N)=O)c1NC(=O)c1cc(Cn2nnc(C(F)F)n2)nn1-c1ncccc1Cl [Example 306]	≥ 80%	1.97	–
Cc1cc(I)cc(C(=O)NC(C)(C)C)c1NC(=O)c1cc(Cn2nnc(C(F)(F)F)n2)nn1-c1ncccc1Cl [Example 118]	≥ 80%	4.12	–
